Reference: patent US12077503B2, “Substituted cyclic amides and their use as herbicides” (FMC CORPORATION, priority 2015, dated 2024)

Columns and labels:
Assay type in all cases: in vivo
[1] = tested on: Kochia (Kochia scoparia); assay: Test A preemergence; details: Bassia scoparia, pre-emergence, 240 h, preemergence, 0 to 100 scale where 0 is no effect and 100 is complete control, read-out: Kochia plant response rating; for pest or weed control at 125 g/ha: 125 g ai/ha, visual injury rating, approximately 10 d; for pest or weed control at 500 g/ha: 500 g ai/ha
In short: (§1)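 Seeded soil received test chemicals as a preemergence directed spray, and seedlings at one to two leaves, 2–10 cm tall, received them postemergence, in a non-phytotoxic, surfactant-containing solvent mixture. Pots were held in a greenhouse for approximately 10 d, then rated for injury from 0, no effect, to 100, complete control.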

[2] = tested on: barnyardgrass (Echinochloa crus-galli); assay: Test A preemergence; details: Echinochloa crus-galli, pre-emergence, 240 h, preemergence, 0 to 100 scale where 0 is no effect and 100 is complete control, read-out: Barnyardgrass plant response rating; for pest or weed control at 125 g/ha: 125 g ai/ha, visual injury rating, approximately 10 d; for pest or weed control at 500 g/ha: 500 g ai/ha
In short: as §1

[3] = tested on: giant foxtail (Setaria faberii); assay: Test A preemergence; details: Setaria faberi, pre-emergence, 240 h, preemergence, 0 to 100 scale where 0 is no effect and 100 is complete control, read-out: Foxtail, Giant plant response rating; for pest or weed control at 125 g/ha: 125 g ai/ha, visual injury rating, approximately 10 d; for pest or weed control at 500 g/ha: 500 g ai/ha
In short: as §1

[4] = tested on: pigweed (Amaranthus retroflexus); assay: Test A preemergence; details: Amaranthus retroflexus, pre-emergence, 240 h, preemergence, 0 to 100 scale where 0 is no effect and 100 is complete control, read-out: Pigweed plant response rating; for pest or weed control at 125 g/ha: 125 g ai/ha, visual injury rating, approximately 10 d; for pest or weed control at 500 g/ha: 500 g ai/ha
[5] = tested on: ragweed (common ragweed, Ambrosia elatior); assay: Test A preemergence; details: Ambrosia artemisiifolia, pre-emergence, 240 h, preemergence, 0 to 100 scale where 0 is no effect and 100 is complete control, read-out: Ragweed plant response rating; for pest or weed control at 125 g/ha: 125 g ai/ha, visual injury rating, approximately 10 d; for pest or weed control at 500 g/ha: 500 g ai/ha
In short: as §1

[6] = tested on: ryegrass, Italian (Italian ryegrass, Lolium multiflorum); assay: Test A preemergence; details: Lolium multiflorum, pre-emergence, 240 h, preemergence, 0 to 100 scale where 0 is no effect and 100 is complete control, read-out: Ryegrass, Italian plant response rating; for pest or weed control at 125 g/ha: 125 g ai/ha, visual injury rating, approximately 10 d; for pest or weed control at 500 g/ha: 500 g ai/ha
In short: as §1

[7] = tested on: Galium (catchweed bedstraw, Galium aparine); assay: Test A postemergence; details: Galium, post-emergence, 240 h, postemergence; for pest or weed control at 125 g/ha: 125 g ai/ha, visual injury vs untreated controls after approx. 10 d, 0 = no effect, 100 = complete control, read-out: Galium plant response rating (0 to 100 scale); for pest or weed control at 500 g/ha: 500 g ai/ha, 0 to 100 scale, 0 is no effect, 100 is complete control, read-out: Galium plant response rating
In short: as §1

[8] = tested on: barnyardgrass (Echinochloa crus-galli); assay: Test A postemergence; details: Echinochloa crus-galli, post-emergence, 240 h, postemergence; for pest or weed control at 125 g/ha: 125 g ai/ha, visual injury vs untreated controls after approx. 10 d, 0 = no effect, 100 = complete control, read-out: Barnyardgrass plant response rating (0 to 100 scale); for pest or weed control at 500 g/ha: 500 g ai/ha, 0 to 100 scale, 0 is no effect, 100 is complete control, read-out: Barnyardgrass plant response rating
In short: as §1

[9] = tested on: giant foxtail (Setaria faberii); assay: Test A postemergence; details: Setaria faberi, post-emergence, 240 h, postemergence; for pest or weed control at 125 g/ha: 125 g ai/ha, visual injury vs untreated controls after approx. 10 d, 0 = no effect, 100 = complete control, read-out: Foxtail, Giant plant response rating (0 to 100 scale); for pest or weed control at 500 g/ha: 500 g ai/ha, 0 to 100 scale, 0 is no effect, 100 is complete control, read-out: Foxtail, Giant plant response rating
In short: as §1

[10] = tested on: wheat (Triticum aestivum); assay: Test A postemergence; details: Triticum aestivum, post-emergence, 240 h, postemergence; for plant injury at 125 g/ha: 125 g ai/ha, visual injury vs untreated controls after approx. 10 d, 0 = no effect, 100 = complete control, read-out: Wheat plant response rating (0 to 100 scale); for plant injury at 500 g/ha: 500 g ai/ha, 0 to 100 scale, 0 is no effect, 100 is complete control, read-out: Wheat plant response rating
In short: as §1

[11] = tested on: barnyardgrass (Echinochloa crus-galli); assay: Test B flooded paddy test; details: Echinochloa crus-galli, 250 g ai/ha, Flood; 0 to 100 scale where 0 is no effect and 100 is complete control; read-out: Barnyardgrass plant response rating
In short: (§2)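 Flooding to 3 cm over soil accompanied treatment, which consisted of adding compound to the standing water around 2-leaf plants; depth was then maintained. Visual assessment versus controls followed at 13 to 15 d (scale 0–100, 0 meaning no effect).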

[12] = tested on: ducksalad (Heteranthera limosa); assay: Test B flooded paddy test; details: Heteranthera limosa, 250 g ai/ha, Flood; 0 to 100 scale where 0 is no effect and 100 is complete control; read-out: Ducksalad plant response rating
In short: as §2

[13] = tested on: rice (Oryra sativa); assay: Test B flooded paddy test; details: Oryza sativa, 250 g ai/ha, Flood; 0 to 100 scale where 0 is no effect and 100 is complete control; read-out: Rice plant response rating
In short: as §2

[14] = tested on: sedge, umbrella (small-flower umbrella sedge, Cyperus difformis); assay: Test B flooded paddy test; details: Cyperus difformis, 250 g ai/ha, Flood; 0 to 100 scale where 0 is no effect and 100 is complete control; read-out: Sedge, Umbrella plant response rating
In short: as §2

Structure (SMILES)	pest or weed control at 125 g/ha [1] [%]	pest or weed control at 500 g/ha [1] [%]	pest or weed control at 125 g/ha [2] [%]	pest or weed control at 500 g/ha [2] [%]	pest or weed control at 125 g/ha [3] [%]	pest or weed control at 500 g/ha [3] [%]	pest or weed control at 125 g/ha [4] [%]	pest or weed control at 500 g/ha [4] [%]	pest or weed control at 125 g/ha [5] [%]	pest or weed control at 500 g/ha [5] [%]	pest or weed control at 125 g/ha [6] [%]	pest or weed control at 500 g/ha [6] [%]	pest or weed control at 125 g/ha [7] [%]	pest or weed control at 500 g/ha [7] [%]	pest or weed control at 125 g/ha [8] [%]	pest or weed control at 500 g/ha [8] [%]	pest or weed control at 125 g/ha [9] [%]	pest or weed control at 500 g/ha [9] [%]	plant injury at 125 g/ha [10] [%]	plant injury at 500 g/ha [10] [%]	further results
N#Cc1cc([C@H]2CNC(=O)[C@]2(O)C(=O)Nc2ccccc2F)ccc1F [Compound 1200]	0	0	0	0	0	0	0	0	0	0	0	0	0	0	0	0	0	0	0	0	pest or weed control at 250 g/ha [11]: 0%; pest or weed control at 250 g/ha [12]: 0%; pest or weed control at 250 g/ha [13]: 0%; pest or weed control at 250 g/ha [14]: 0%
CSc1ccccc1NC(=O)[C@H]1C(=O)NC[C@@H]1c1ccc(F)c(C#N)c1 [Compound 1201]	30	70	0	70	70	80	20	70	60	70	0	0	30	50	70	100	70	90	0	0	pest or weed control at 250 g/ha [11]: 0%; pest or weed control at 250 g/ha [12]: 50%; pest or weed control at 250 g/ha [13]: 0%; pest or weed control at 250 g/ha [14]: 0%
COc1cc(C(F)(F)F)ccc1[C@H]1CN(C)C(=O)[C@@H]1C(=O)Nc1cccc(F)c1C [Compound 1205]	30	30	90	90	100	100	0	30	0	0	40	70	20	40	40	50	80	80	30	40	pest or weed control at 250 g/ha [11]: 40%; pest or weed control at 250 g/ha [12]: 100%; pest or weed control at 250 g/ha [13]: 20%; pest or weed control at 250 g/ha [14]: 0%
Cc1c(F)cccc1NC(=O)[C@H]1C(=O)N(C)C[C@@H]1c1ccc(F)c(Br)c1 [Compound 1211]	20	70	100	100	100	100	50	70	50	50	50	80	50	60	100	100	80	80	30	60	pest or weed control at 250 g/ha [11]: 85%; pest or weed control at 250 g/ha [12]: 100%; pest or weed control at 250 g/ha [13]: 60%; pest or weed control at 250 g/ha [14]: 0%
Cc1c(F)cccc1NC(=O)[C@H]1C(=O)N(C)C[C@@H]1c1ccc(OC(F)F)cc1 [Compound 1213]	70	80	100	100	100	100	50	80	50	70	20	70	50	60	100	100	90	90	40	50	pest or weed control at 250 g/ha [11]: 70%; pest or weed control at 250 g/ha [12]: 100%; pest or weed control at 250 g/ha [13]: 20%; pest or weed control at 250 g/ha [14]: 0%
